“Also recorded” adds a separate entry of the source.

Holding throughout (format): cell-based
In test [1] the test system is Involucrin. Nature of the test: Induction of differentiation marker involucrin in human epidermal keratinocytes (real time RT-PCR). As to conditions: NHEK, several concentrations. As for the experimental part: (§1) Silica mud precipitate was obtained from a natural source (Blue Lagoon geothermal basin, Svartsengi, Iceland). Sodium metasilicate was obtained from Prof. Dr. G. Lehmann, Biochemistry, Regensburg University. As control a ceramide mix (10 μM) was used to induce the differentiation markers.
(§2) Long term cultured normal human epidermal keratinocytes, NHEK, prepared from neonatal foreskin are cultured in Keratinocyte SFM (Invitrogen™, Heidelberg, Germany) supplemented with bovine pituitary extract (Invitrogen, Heidelberg, Germany) and recombinant epidermal growth factor (Invitrogen, Heidelberg, Germany). Cells are propagated up to passage 2 or 3 at 37° C. and 5% CO2. For induction of differentiation NHEKs are seeded in 6-well plates and grown up to confluence and treated with several concentrations of the silica preparates.
(§3) Total RNA was isolated using RNeasy Total RNA Kits (Qiagen, Hilden, Germany). The RNA concentration was determined via photometric measurement at 260/280 (Biophotometer, Eppendorf AG, Hamburg, Germany). An aliquot of 10 ng RNA was used for cDNA synthesis. […]
(§4) PCR reactions were carried out on an opticon 1 (MJ Research, Waltham, Mass., USA) using SYBR Green® PCR Master Mix (Applied Biosystems, Darmstadt, Germany). Each sample was analyzed in double employing the universal protocol over 36 cycles. […]
For orientation: Real-time PCR tracks product formation cycle by cycle.

Test [2] deals with transglutaminase-1. Nature of the test: Induction of differentiation marker transglutaminase-1 in human epidermal keratinocytes (real time RT-PCR). The conditions noted are these: NHEK, several concentrations. As for the experimental part:
as §1, §2, §3, §4

Test [3] concerns Filaggrin. Put plainly: Induction of differentiation marker filaggrin in human epidermal keratinocytes (real time RT-PCR). The conditions noted are these: NHEK, several concentrations. How it is done:
as §1, §2, §3, §4

The test system of test [4] is Loricrin. Put plainly: Induction of differentiation marker loricrin in human epidermal keratinocytes (real time RT-PCR). As to conditions: NHEK, several concentrations. As for the experimental part:
as §1, §2, §3, §4

The subject of test [5] is collagen 1A1. Put plainly: Collagen 1A1 gene expression in human dermal fibroblasts. As to conditions: real time RT-PCR. From the text:
Human dermal fibroblasts, HDF, prepared from neonatal foreskin and cultured for 4 days until they reached confluence as described in Example 3.

For the compound `O=[Si]([O-])[O-].[Na+].[Na+]` [sodium metasilicate], the expression of involucrin entry in test [1] is “substantial up-regulation; also recorded: induced”. For the same compound, the “expression of transglutaminase-1” value in test [2] is on record as “substantial up-regulation; also recorded: induced”. Further, the expression of filaggrin result in test [3] is listed as “substantial up-regulation; also recorded: induced; also recorded: stronger than with silica mud”. Also, the expression of loricrin entry in test [4] is reported as “induced”. The “collagen 1A1 gene expression” value in test [5] is recorded as “did not show any increase”.

The values are drawn from US20090311348A1, “PHARMECEUTICAL AND COSMETIC USE OF SILICA” (priority 2006, published 2009).
